Experimental data as given in ChEMBL document CHEMBL3046836, “Laboratory assays of select candidate insecticides for control of Dendroctonus ponderosae” (2011).
Values after ≈ are worked out from the molar mass of the structure shown. Values joined by “and” are separate entries in the source; they are usually repeats but may differ in a detail not shown here. Equal values may be shown once. Active and inactive are the calls of the source. The rule behind the calls is not given here.

Legend:
Assay type in all cases: functional
[1] = system: Dendroctonus ponderosae; experiment: Insecticidal activity against adult Dendroctonus ponderosae assessed as mortality after 24 hr by filter paper assay
[2] = system: Dendroctonus ponderosae; experiment: Insecticidal activity against adult male Dendroctonus ponderosae assessed as mortality after 24 hr by filter paper assay
[3] = system: Dendroctonus ponderosae; experiment: Insecticidal activity against adult male Dendroctonus ponderosae assessed as mortality applied topically to ventral surface of insect mesothorax after 24 hr
[4] = system: Dendroctonus ponderosae; experiment: Insecticidal activity against adult female Dendroctonus ponderosae assessed as mortality applied topically to ventral surface of insect mesothorax after 24 hr
[5] = system: Dendroctonus ponderosae; experiment: Insecticidal activity against adult Dendroctonus ponderosae assessed as mortality applied topically to ventral surface of insect mesothorax after 24 hr
[6] = system: Dendroctonus ponderosae; experiment: Insecticidal activity against adult Dendroctonus ponderosae assessed as mortality after 12 hr by filter paper assay
[7] = system: Dendroctonus ponderosae; experiment: Insecticidal activity against adult Dendroctonus ponderosae assessed as mortality applied topically on the ventral surface of insect mesothorax after 12 hr; conditions: topical
[8] = system: Dendroctonus ponderosae; experiment: Insecticidal activity against adult female Dendroctonus ponderosae assessed as mortality after 24 hr by filter paper assay
[9] = Dendroctonus ponderosae, 24 h, read-out: LC50
[10] = Dendroctonus ponderosae, topical, 24 h, read-out: LC50

Compound | LC50 [1] | LC50 [2] [mg/L] | LC50 [2, 9] [mg/L] | LC50 [3] | LC50 [4] [mg/L] | LC50 [4, 10] [mg/L] | LC50 [5] [mg/L] | LC50 [5, 10] [mg/L] | LC50 [6] | LC50 ([6]; Dendroctonus ponderosae, 12 h, read-out: LC50) [mg/L] | LC50 [1, 9] [mg/L] | LC50 [3, 10] [mg/L] | LC50 [7] [mg/L] | LC50 [8] [mg/L]
CNC(=O)c1cc(C#N)cc(C)c1NC(=O)c1cc(Br)nn1-c1ncccc1Cl [CYANTRANILIPROLE] | 3 mg/L and 6.2 mg/L | 1.7 (≈ 3.59 µM) | 3.4 (≈ 7.18 µM) | 301.5 mg/L and 102 mg/L | 164.8 (≈ 348 µM) | 258 (≈ 544 µM) | 141.5 (≈ 299 µM) | 271 (≈ 571 µM) | 46.1 mg/L (≈ 97.3 µM) | 56.8 (≈ 120 µM) | – | – | – | –
CNC(=O)c1cc(Cl)cc(C)c1NC(=O)c1cc(Br)nn1-c1ncccc1Cl [CHLORANTRANILIPROLE] | – | – | 11 (≈ 22.8 µM) | – | – | 1110 (≈ 2300 µM) | – | 1380 (≈ 2870 µM) | inactive | – | 34.9 (≈ 72.2 µM) | 1750 (≈ 3620 µM) | 6300 (≈ 13000 µM) | 72.7 (≈ 150 µM)
